According to ChEMBL document CHEMBL1201862, “PubChem BioAssay data set” (2004):
The source made the active and inactive calls.

What was measured:
[1] = molecular target: Neurotensin receptor type 1 (Homo sapiens, UniProt P30989); assay type: functional;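 also: Image-based confirmatory dose-response assay measuring agonist activity at NTR1; NTR1-expressing U2OS osteosarcoma cells imaged for beta-arrestin GFP spot formation; agonist potency where compounds increase beta-arrestin recruitment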
[2] = viability loss of HPDE-C7K cells – cell-based, fluorescence, HTS, primary screen (AID 431); assay type: functional; details: Homo sapiens
[3] = HEK-293T viability loss after treatment – luminescence, T-cell screen hits, cytotoxicity control for TCR NF-kB inhibitor project, dose response (AID 489026); assay type: functional, cell-based;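 also: cells exposed to compound about 14 hours before the viability readout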
[4] = viability loss in CEM21 cells – cell-based, CellTiter-Glo luminescence, cherry-picked, cytotoxicity control for viral fusion inhibitor project, dose response (AID 652042); assay type: functional;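 also: potency for signal decrease meaning cytotoxicity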
[5] = off-target signal loss in HeLa-CEM21 co-culture – HeLa F-luc CTL cells, cherry-picked, counter-screen for HIV-1 Env fusion inhibitor project, dose response (AID 652040); assay type: functional, cell-based;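 also: potency for signal decrease marking cytotoxic or nonspecific inhibition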
[6] = HPDE-C7 pancreatic duct cell viability loss – fluorescence, HTS (AID 430); assay type: functional, cell-based; details: Homo sapiens
[7] = toxicity toward HepG2 liver cells – cell-based, plate reader, cherry-pick, antagonist series, cytotoxicity control, dose response (AID 743416); assay type: functional
[8] = blockers of bursicon-stimulated LGR2 cAMP reporter – cell-based, HEK293, CRE-luciferase reporter, cherry pick, set 2, dose response (AID 743343); assay type: functional;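 also: transfected cells were stimulated with diluted bursicon conditioned medium after compound addition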
[9] = blockade of melanocortin 4 receptor signaling – cell-based, plate reader, cherry pick, counter-screen for LGR2 antagonist project, dose response (AID 743444); assay type: functional;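 also: transfected HEK 293 cells stimulated with alpha-MSH peptide; potency of inhibitors of the alpha-MSH evoked signal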
[10] = viability loss in HEK293 cells – cell-based, plate reader, cherry-picked samples, cytotoxicity control, dose response (AID 743446); assay type: functional
[11] = molecular target: T1, Voltage-gated N-type calcium channel alpha-1B subunit/Amyloid beta A4 precursor protein-binding family A member 1 (Homo sapiens, UniProt Q00975+Q02410); assay type: protein assay
[12] = molecular target: T1, Voltage-gated N-type calcium channel alpha-1B subunit/Amyloid beta A4 precursor protein-binding family A member 1; assay type: protein assay; remark: listed apart in the source
[13] = molecular target: DNA dC->dU-editing enzyme APOBEC-3G (Homo sapiens, UniProt Q9HC16); assay type: functional;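 also: Dose-response counterscreen measuring inhibition of APOBEC3G DNA deaminase activity, run while confirming APOBEC3A inhibitors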
[14] = molecular target: DNA dC->dU-editing enzyme APOBEC-3A (Homo sapiens, UniProt P31941); experiment: Dose Response confirmation of small molecule APOBEC3A DNA Deaminase Inhibitors via a fluorescence-based single-stranded DNA deaminase assay. [Related pubchem assays (depositor defined):AID493011, AID493024]; assay type: functional
[15] = molecular target: T2, Tyrosine-protein phosphatase non-receptor type 7 (Homo sapiens, UniProt P35236); assay type: functional
T2 sequence (P35236 whole entry): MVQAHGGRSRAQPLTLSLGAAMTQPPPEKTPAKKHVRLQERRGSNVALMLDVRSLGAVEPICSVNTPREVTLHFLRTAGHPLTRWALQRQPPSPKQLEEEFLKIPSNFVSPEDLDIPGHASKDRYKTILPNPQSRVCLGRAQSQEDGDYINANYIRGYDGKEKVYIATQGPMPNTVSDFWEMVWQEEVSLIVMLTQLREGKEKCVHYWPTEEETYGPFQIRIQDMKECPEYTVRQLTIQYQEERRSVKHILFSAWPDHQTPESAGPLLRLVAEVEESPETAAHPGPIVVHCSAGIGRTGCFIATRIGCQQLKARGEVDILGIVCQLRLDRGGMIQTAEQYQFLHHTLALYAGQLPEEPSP

[16] = molecular target: T3, Tyrosine-protein phosphatase non-receptor type 22 (Homo sapiens, UniProt Q9Y2R2); assay type: functional
T3 sequence (Q9Y2R2 whole entry): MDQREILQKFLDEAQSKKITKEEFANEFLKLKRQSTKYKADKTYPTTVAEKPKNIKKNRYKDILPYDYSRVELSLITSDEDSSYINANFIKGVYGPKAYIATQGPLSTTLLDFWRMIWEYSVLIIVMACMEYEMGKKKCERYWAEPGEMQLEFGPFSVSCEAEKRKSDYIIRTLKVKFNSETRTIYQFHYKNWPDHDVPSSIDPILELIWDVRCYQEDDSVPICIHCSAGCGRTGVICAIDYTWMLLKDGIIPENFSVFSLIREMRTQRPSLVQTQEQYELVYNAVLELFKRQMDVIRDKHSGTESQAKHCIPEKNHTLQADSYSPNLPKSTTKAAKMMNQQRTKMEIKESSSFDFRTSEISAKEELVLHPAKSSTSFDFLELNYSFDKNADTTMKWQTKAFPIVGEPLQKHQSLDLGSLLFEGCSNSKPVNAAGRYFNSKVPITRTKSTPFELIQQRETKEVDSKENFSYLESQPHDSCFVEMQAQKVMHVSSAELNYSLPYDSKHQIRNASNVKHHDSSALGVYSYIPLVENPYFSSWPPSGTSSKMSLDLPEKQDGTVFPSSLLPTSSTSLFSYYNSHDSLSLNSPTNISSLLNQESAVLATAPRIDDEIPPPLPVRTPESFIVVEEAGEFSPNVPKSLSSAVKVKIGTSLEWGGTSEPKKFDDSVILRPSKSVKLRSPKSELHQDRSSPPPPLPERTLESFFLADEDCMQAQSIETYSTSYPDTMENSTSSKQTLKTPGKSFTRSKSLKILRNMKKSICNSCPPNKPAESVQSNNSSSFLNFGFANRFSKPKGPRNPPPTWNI

[17] = molecular target: T3, Tyrosine-protein phosphatase non-receptor type 22; assay type: functional; remark: listed apart in the source
Troponin, cardiac muscle = Troponin, cardiac muscle (Homo sapiens, UniProt P19429+P45379+P63316); experiment: Fluorescence-based biochemical high throughput dose response assay for activators of the calcium sensitivity of cardiac Regulated Thin Filaments (RTF). [Related pubchem assays (depositor defined):AID493008, AID493018, AID504382, AID504383]; assay type: protein-complex assay
[18] = molecular target: T4, Eukaryotic translation initiation factor 2-alpha kinase 3 (Homo sapiens, UniProt Q9NZJ5); experiment: Dose response cell-based high-throughput screening assay to measure PERK inhibition. [Related pubchem assays: 1416 ]; assay type: functional
T4 sequence (Q9NZJ5 whole entry): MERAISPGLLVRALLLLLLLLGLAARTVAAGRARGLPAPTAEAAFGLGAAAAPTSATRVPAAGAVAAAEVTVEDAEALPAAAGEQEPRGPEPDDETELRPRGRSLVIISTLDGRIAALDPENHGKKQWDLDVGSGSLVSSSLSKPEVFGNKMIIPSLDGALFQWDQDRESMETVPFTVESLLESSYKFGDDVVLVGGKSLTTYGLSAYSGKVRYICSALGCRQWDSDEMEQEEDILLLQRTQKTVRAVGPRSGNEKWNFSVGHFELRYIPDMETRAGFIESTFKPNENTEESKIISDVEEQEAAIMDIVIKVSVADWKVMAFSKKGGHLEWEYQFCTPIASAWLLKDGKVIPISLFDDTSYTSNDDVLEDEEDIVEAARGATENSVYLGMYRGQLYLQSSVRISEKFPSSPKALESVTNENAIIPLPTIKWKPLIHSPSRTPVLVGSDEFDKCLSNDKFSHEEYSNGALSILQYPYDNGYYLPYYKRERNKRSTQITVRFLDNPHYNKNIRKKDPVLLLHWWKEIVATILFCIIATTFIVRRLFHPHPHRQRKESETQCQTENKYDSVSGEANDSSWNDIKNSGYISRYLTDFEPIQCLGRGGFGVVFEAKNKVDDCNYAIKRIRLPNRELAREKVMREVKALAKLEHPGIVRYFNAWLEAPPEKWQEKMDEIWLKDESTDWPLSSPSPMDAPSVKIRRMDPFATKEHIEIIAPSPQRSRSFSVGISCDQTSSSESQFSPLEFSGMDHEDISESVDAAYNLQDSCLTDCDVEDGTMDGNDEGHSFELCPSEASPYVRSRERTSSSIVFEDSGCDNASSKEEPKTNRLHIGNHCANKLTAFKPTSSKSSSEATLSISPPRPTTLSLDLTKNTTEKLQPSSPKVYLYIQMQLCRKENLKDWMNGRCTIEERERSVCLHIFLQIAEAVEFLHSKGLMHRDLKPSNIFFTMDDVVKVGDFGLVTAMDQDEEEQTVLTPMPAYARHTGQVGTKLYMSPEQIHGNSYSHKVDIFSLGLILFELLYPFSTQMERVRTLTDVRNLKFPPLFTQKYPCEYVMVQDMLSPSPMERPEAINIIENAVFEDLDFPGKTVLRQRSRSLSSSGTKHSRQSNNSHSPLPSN

[19] = molecular target: T4, Eukaryotic translation initiation factor 2-alpha kinase 3; experiment: Counterscreen assay for PERK inhibitors: Dose response cell-based high throughput screening assay to measure inhibition of PERK at 6 hours. [Related pubchem assays: 1522, 1416 ]; assay type: functional
Hexokinase = Hexokinase (Trypanosoma brucei, UniProt Q38C41); experiment: Confirmation assay for inhibitors of Trypanosoma brucei hexokinase 1-Analogue-first series. [Related pubchem assays (depositor defined):AID1430, AID1632, AID2516, AID2560, AID2579, AID2600, AID449725, AID492951]; assay type: functional
HeLa = experiment: viability loss in HeLa cells – cell-based, 24 h, cherry-picked samples, cytotoxicity control, dose response (AID 504726); assay type: functional; details: Homo sapiens;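 also: potency for cytotoxicity as loss of luminescence signal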
Streptococcus = experiment: GAS UMAA2166 growth inhibition – luminescence, BacTiterGlo, counter-screen for streptokinase expression inhibitor project, dose response (AID 1915); assay type: functional, organism-based;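 also: potency for reduction of bacterial viability or growth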
[20] = Luminescence Cell-Based Dose Retest to Confirm Inhibitors of Cancer Stem Cells. [Related pubchem assays (depositor defined):AID2717, AID2721]; assay type: functional; details: Homo sapiens
[21] = tested on: Streptococcus sp. 'group A'; experiment: Streptococcus pyogenes SK(-)GAS viability under kanamycin – luminescence, BacTiterGlo, confirmation, counter-screen for streptokinase expression inhibitor project, dose response (AID 1900); assay type: functional, organism-based
Streptokinase A = molecular target: T5, Streptokinase A (Streptococcus pyogenes serotype M1, UniProt P10520); experiment: viability-normalized secreted streptokinase activity reduction – plasminogen activation absorbance, OD405, dose response (AID 1914); assay type: functional, Streptococcus pyogenes M1 GAS;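 also: secreted streptokinase activity via plasminogen activation per viability signal from cell pellet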
T5 sequence (P10520 whole entry): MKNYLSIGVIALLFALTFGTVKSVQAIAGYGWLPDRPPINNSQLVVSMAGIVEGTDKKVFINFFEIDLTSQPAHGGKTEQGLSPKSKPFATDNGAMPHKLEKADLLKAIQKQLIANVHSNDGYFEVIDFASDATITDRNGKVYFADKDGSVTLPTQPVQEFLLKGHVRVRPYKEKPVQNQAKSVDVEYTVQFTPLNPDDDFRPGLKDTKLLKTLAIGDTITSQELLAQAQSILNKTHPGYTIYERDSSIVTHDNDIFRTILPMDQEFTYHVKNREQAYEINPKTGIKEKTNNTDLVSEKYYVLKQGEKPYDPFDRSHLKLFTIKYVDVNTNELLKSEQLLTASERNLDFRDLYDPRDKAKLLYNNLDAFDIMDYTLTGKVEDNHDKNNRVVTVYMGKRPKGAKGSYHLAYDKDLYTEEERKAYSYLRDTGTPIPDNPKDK

[22] = molecular target: T6, Heat shock factor protein 1 (Mus musculus, UniProt P38532); experiment: enhancement of HSF1-driven luciferase signal – cell-based, NIH3T3, luminescence, dose retest, confirmation (AID 435004); assay type: functional;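 also: stress induced by proteasome inhibitor MG132 added 30 min after compound; luciferase reporter driven by HSF1 response element in NIH3T3 cells; actives raise luminescence as potentiators of the MG132 stress response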
T6 sequence (P38532 whole entry): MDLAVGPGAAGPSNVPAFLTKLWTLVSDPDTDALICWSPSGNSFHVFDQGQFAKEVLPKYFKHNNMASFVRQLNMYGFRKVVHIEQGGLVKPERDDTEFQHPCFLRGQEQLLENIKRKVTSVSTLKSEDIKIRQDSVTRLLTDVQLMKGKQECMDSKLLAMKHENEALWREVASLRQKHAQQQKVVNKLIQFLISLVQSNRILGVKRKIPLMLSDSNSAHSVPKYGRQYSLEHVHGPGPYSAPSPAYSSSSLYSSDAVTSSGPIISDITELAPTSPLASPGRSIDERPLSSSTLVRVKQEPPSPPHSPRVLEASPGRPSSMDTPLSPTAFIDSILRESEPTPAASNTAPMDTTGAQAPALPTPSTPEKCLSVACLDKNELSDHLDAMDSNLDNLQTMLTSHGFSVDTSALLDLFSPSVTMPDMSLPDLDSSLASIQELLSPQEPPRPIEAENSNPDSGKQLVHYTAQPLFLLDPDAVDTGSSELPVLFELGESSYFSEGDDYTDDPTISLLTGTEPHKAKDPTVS

Hexokinase, sequence (Q38C41 whole entry): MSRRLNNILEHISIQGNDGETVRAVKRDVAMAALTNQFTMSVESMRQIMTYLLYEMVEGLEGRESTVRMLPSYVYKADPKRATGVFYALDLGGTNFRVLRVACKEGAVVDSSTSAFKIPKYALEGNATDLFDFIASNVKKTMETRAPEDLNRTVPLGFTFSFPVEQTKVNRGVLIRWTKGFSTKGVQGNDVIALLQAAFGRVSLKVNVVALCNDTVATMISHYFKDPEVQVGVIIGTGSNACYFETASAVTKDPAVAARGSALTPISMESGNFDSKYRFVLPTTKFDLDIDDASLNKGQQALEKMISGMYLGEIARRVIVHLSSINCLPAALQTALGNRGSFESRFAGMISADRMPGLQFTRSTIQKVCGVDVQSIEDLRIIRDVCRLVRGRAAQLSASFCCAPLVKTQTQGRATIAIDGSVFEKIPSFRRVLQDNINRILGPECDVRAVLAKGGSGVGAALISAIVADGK
T1 sequence (Q00975 whole entry): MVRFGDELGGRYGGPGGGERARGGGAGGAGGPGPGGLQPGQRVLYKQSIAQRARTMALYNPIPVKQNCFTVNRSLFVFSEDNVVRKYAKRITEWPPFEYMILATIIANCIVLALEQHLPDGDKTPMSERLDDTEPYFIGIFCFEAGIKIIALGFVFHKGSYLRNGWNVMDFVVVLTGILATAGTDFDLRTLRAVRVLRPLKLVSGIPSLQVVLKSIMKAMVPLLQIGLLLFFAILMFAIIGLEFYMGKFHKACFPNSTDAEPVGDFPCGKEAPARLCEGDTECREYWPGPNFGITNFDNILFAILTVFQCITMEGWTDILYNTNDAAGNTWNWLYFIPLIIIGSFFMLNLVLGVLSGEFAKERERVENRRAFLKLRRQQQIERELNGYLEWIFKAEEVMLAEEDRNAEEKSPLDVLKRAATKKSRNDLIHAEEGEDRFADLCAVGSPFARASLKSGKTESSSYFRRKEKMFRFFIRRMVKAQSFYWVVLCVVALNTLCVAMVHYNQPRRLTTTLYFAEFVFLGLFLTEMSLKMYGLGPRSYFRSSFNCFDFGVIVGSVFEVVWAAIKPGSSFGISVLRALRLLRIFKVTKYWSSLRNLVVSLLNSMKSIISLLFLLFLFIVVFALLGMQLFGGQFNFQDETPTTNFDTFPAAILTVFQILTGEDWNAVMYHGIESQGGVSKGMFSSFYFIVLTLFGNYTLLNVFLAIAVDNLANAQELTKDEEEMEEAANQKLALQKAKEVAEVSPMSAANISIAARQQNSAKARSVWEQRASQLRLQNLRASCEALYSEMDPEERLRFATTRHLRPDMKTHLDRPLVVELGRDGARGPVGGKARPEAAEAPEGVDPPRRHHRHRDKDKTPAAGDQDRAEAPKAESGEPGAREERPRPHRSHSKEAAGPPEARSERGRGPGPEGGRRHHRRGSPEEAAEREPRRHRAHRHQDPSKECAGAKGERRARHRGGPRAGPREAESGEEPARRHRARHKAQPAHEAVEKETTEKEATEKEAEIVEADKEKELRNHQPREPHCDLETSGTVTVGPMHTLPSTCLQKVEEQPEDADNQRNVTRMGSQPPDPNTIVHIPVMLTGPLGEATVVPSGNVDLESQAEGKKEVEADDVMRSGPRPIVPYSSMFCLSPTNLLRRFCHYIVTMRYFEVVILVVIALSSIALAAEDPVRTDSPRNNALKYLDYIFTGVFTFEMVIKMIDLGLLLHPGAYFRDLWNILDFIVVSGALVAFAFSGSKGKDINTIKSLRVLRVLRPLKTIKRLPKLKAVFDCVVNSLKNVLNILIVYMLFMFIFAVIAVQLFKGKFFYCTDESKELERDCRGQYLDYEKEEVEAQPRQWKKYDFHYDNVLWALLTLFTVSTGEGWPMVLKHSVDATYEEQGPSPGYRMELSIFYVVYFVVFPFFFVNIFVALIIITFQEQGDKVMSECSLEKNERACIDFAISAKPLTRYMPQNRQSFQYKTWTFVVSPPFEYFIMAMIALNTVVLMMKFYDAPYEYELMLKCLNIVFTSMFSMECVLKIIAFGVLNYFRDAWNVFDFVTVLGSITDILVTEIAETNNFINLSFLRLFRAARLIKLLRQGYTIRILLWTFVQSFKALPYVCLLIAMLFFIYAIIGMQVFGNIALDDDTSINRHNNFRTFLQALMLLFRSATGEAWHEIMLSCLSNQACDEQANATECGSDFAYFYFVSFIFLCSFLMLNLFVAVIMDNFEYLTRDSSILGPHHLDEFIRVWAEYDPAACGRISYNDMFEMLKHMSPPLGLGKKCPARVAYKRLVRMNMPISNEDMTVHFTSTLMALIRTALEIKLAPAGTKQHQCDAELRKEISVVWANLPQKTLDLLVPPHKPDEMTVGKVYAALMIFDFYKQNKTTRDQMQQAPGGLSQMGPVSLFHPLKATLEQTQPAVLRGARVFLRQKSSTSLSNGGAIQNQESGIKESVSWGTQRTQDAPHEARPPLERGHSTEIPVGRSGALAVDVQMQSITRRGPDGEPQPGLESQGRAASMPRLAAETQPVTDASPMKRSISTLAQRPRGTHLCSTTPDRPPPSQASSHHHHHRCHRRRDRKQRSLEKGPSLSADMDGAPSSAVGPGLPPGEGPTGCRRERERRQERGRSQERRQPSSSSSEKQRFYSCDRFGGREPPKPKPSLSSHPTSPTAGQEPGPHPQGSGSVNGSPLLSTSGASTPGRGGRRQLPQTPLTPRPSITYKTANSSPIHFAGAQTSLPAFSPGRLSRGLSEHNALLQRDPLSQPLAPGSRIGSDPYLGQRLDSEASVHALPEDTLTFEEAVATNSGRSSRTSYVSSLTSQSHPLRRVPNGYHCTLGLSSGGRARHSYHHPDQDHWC
T1 sequence (Q02410 whole entry): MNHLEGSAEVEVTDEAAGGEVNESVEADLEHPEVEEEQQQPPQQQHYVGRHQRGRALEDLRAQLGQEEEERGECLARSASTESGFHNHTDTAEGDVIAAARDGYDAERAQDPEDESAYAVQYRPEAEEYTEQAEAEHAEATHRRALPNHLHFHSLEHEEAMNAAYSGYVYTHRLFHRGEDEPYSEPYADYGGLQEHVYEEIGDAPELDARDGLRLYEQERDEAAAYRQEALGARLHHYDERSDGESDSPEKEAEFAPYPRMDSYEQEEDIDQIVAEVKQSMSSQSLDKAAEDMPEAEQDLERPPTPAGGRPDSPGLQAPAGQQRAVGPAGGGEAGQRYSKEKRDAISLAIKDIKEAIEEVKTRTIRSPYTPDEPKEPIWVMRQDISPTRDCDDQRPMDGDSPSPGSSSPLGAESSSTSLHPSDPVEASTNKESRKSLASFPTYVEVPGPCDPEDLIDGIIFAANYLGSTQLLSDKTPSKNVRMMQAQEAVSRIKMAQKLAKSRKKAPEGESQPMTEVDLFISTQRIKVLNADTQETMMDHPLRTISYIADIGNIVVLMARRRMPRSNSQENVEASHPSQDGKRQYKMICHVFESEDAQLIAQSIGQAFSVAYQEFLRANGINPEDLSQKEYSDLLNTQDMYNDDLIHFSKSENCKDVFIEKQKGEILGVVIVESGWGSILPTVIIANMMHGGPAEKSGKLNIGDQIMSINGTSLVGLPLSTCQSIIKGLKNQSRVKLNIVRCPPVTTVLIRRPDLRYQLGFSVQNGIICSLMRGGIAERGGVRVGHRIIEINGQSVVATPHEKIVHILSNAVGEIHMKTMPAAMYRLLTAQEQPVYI
Neurotensin receptor type 1, sequence (P30989 whole entry): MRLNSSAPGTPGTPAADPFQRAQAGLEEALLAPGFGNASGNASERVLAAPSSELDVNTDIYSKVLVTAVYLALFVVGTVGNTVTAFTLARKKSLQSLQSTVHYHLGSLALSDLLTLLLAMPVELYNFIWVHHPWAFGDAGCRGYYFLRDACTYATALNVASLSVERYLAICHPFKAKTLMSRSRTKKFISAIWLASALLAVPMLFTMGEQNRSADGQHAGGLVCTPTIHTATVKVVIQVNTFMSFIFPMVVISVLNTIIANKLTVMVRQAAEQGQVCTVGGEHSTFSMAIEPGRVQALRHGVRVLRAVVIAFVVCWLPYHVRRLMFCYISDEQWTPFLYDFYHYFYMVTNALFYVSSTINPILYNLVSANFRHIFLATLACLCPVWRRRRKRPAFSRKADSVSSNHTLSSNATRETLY
DNA dC->dU-editing enzyme APOBEC-3G, sequence (Q9HC16 whole entry): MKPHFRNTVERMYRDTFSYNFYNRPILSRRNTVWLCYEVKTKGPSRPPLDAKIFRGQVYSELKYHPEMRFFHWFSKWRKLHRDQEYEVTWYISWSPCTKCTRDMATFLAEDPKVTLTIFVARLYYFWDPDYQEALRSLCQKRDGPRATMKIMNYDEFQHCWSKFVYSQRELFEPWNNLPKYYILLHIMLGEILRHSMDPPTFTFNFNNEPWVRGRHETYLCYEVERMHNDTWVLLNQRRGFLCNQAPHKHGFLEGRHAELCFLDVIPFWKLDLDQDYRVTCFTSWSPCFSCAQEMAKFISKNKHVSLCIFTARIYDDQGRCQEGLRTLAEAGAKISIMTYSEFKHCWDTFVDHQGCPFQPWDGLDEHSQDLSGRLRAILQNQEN
DNA dC->dU-editing enzyme APOBEC-3A, sequence (P31941 whole entry): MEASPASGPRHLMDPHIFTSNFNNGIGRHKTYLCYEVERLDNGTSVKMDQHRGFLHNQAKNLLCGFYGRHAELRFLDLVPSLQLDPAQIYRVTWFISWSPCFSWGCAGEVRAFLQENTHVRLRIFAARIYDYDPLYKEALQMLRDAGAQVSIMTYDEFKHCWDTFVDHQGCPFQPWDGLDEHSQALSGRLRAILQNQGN

Cc1ccc(-n2ncc3c(N4CCN(c5ccccc5)CC4)ncnc32)c(C)c1
EC50 [1]: 9.82 µM (active)
EC50 [2]: 8.48 µM (active)
IC50 [3]: 29.6 µM (inactive)
AC50 [4]: 17.7 µM (active)
AC50 [5]: 32.4 µM (active)
EC50 [6]: 13.8 µM (active)
AC50 [7]: 34.7 µM (active)
AC50 [8]: 13.8 µM (active)
AC50 [9]: 16.5 µM (active)
AC50 [10]: 14.4 µM (active)

C=C(C)C(=O)Nc1cccc(C2=NOC3(C2)C[C@@H](C(N)=O)N(C(=O)c2ccc(OC)cc2)C3)c1 (stereo partly specified)
IC50 [11]: > 50 µM (inactive)
IC50 (cells): 38.9 µM (active)
IC50 [12]: > 56.8 µM (not active)

Cn1c(CNC(=O)c2ccco2)nnc1SCC(=O)N1c2ccccc2Sc2ccccc21
IC50 [13]: 5.8 µM (active)
IC50 [14]: 4 µM (active)

CCC1CCCCN1CCCNC(=O)c1ccc(CS(=O)(=O)Cc2ccccc2F)o1 (stereo unspecified)
IC50 [15]: > 79.4 µM (inactive)
IC50 [16]: > 79.4 µM (inactive)
IC50 [17]: > 79.4 µM (inactive)

CC(C)Sc1nc2cc(Br)ccc2[nH]1
EC50 (Troponin, cardiac muscle): > 71.4 µM (inactive)

COC(=O)Cc1ccc(NC(S)=NNC(=O)C2CC2)cc1
EC50 [18]: > 55.7 µM (not active)
EC50 [19]: > 55.7 µM (not active)

CCc1ccc(-n2c(SCC(=O)N3Cc4ccccc4CC3C(=O)O)nnc2-c2ccncc2)cc1 (stereo unspecified)
EC50 [18]: > 55.7 µM (not active)
EC50 [19]: > 55.7 µM (not active)

CC(=O)Nc1cc(Cl)ccc1C(=O)O
IC50 (Hexokinase): > 25 µM (inactive)

CSc1ncccc1C(=O)OCCCC(=O)c1ccc(F)cc1
AC50 (HeLa): 91.9 µM (active)

O=C(O)c1ccc(Cl)cc1NC(=O)c1coc2ccccc12
IC50 (Hexokinase): > 25 µM (inactive)

O=c1/c(=C\c2cccc(O)c2)sc2nc(-c3ccccc3)c(-c3ccccc3)n12
EC50 (Streptococcus): 51.1 µM (active)
EC50 [1]: 27.2 µM (inactive)
AC50 [20]: 2.59 µM (active)
EC50 [21]: 3.01 µM (active)
EC50 (Streptokinase A): 4.22 µM (active)

Cc1cc(C)cc(OCC(=O)N/N=C\c2cn(C)nc2C)c1
IC50 [15]: > 79.4 µM (inactive)
IC50 [16]: > 79.4 µM (inactive)
IC50 [17]: > 79.4 µM (inactive)

Cn1c(=O)c2c(nc(N/N=C/c3ccc(OC(=O)c4ccco4)cc3)n2Cc2ccc(F)cc2)n(C)c1=O
EC50 [22]: 3.74 µM (active)
AC50 (HeLa): 43.7 µM (active)
